Laboratory results as given in ChEMBL document CHEMBL3885881, “DrugMatrix”.

Species on record: Rattus norvegicus
Test: DrugMatrix - Regimen: Daily Repeat
Assay type: toxicity, organism-based, Sprague-Dawley
Design: regimen Daily Repeat, gender Male, age 6-8 weeks
Details: in vivo, po, route oral GAVAGE, vehicle .5 % CMC; for ABSOLUTE BASOPHIL / ABSOLUTE EOSINOPHIL / ABSOLUTE LYMPHOCYTE / ABSOLUTE MONOCYTE / ABSOLUTE SEGMENTED NEUTROPHIL / BASOPHIL / EOSINOPHIL / ERYTHROCYTE COUNT / HEMATOCRIT / HEMOGLOBIN / LEUKOCYTE COUNT / LYMPHOCYTE / MEAN CORPUSCULAR HEMOGLOBIN / MEAN CORPUSCULAR HEMOGLOBIN CONCENTRATION / MEAN CORPUSCULAR VOLUME / MONOCYTE / NEUTROPHIL / NUCLEATED RED BLOOD CELLS / PLATELET COUNT: tissue Blood; for ALANINE AMINOTRANSFERASE / ALBUMIN / ALKALINE PHOSPHATASE / ASPARTATE AMINOTRANSFERASE / BLOOD UREA NITROGEN / CARBON DIOXIDE / CHLORIDE / CHOLESTEROL / CREATINE PHOSPHOKINASE / CREATININE / GLUCOSE / LACTATE DEHYDROGENASE / LIPASE / PHOSPHORUS / POTASSIUM / SODIUM / TOTAL BILIRUBIN / TOTAL PROTEIN / URIC ACID: tissue Plasma
[1] = 0 mg/kg, 72 h, dose level Control, time 3 day
[2] = 0 mg/kg, 120 h, dose level Control, time 5 day
[3] = 19 mg/kg, 72 h, dose level High, time 3 day

SMILES: NCC(CC(=O)O)c1ccc(Cl)cc1 (centres undefined) [BACLOFEN]
- ABSOLUTE BASOPHIL [1]: 0 CELLS/uL
- ABSOLUTE EOSINOPHIL [1]: 171.33 CELLS/uL
- ABSOLUTE LYMPHOCYTE [1]: 13776.5 CELLS/uL
- ABSOLUTE MONOCYTE [1]: 180.83 CELLS/uL
- ABSOLUTE SEGMENTED NEUTROPHIL [1]: 1121.33 CELLS/uL
- BASOPHIL [1]: 0%
- EOSINOPHIL [1]: 1%
- ERYTHROCYTE COUNT [1]: 5.56 x10E6/uL
- HEMATOCRIT [1]: 34.75%
- HEMOGLOBIN [1]: 13.68 G/DL
- LEUKOCYTE COUNT [1]: 15.25 x10E3/uL
- LYMPHOCYTE [1]: 90.17%
- MEAN CORPUSCULAR HEMOGLOBIN [1]: 24.6 pg
- MEAN CORPUSCULAR HEMOGLOBIN CONCENTRATION [1]: 39.4 G/DL
- MEAN CORPUSCULAR VOLUME [1]: 62.48 fL
- MONOCYTE [1]: 1.17%
- NEUTROPHIL [1]: 7.67%
- NUCLEATED RED BLOOD CELLS [1]: 0 /100WBC
- PLATELET COUNT [1]: 1342 x10E3/uL
- ALANINE AMINOTRANSFERASE [1]: 49.67 u/L
- ALBUMIN [1]: 4.15 G/DL
- ALKALINE PHOSPHATASE [1]: 346.83 u/L
- ASPARTATE AMINOTRANSFERASE [1]: 108.17 u/L
- BLOOD UREA NITROGEN [1]: 17.33 mg/dL
- CARBON DIOXIDE [1]: 25 mmol/L
- CHLORIDE [1]: 100.83 MEQ/L
- CHOLESTEROL [1]: 66.83 mg/dL
- CREATINE PHOSPHOKINASE [1]: 788 u/L
- CREATININE [1]: 0.18 mg/dL
- GLUCOSE [1]: 151.67 mg/dL
- LACTATE DEHYDROGENASE [1]: 982.5 u/L
- LIPASE [1]: 10.33 u/L
- PHOSPHORUS [1]: 11.23 mg/dL
- POTASSIUM [1]: 6.37 MEQ/L
- SODIUM [1]: 141.02 MEQ/L
- TOTAL BILIRUBIN [1]: 0.18 mg/dL
- TOTAL PROTEIN [1]: 5.9 G/DL
- URIC ACID [1]: 1.8 mg/dL
- ABSOLUTE BASOPHIL [2]: 0 CELLS/uL
- ABSOLUTE EOSINOPHIL [2]: 69 CELLS/uL
- ABSOLUTE LYMPHOCYTE [2]: 13632.83 CELLS/uL
- ABSOLUTE MONOCYTE [2]: 139.83 CELLS/uL
- ABSOLUTE SEGMENTED NEUTROPHIL [2]: 1225 CELLS/uL
- BASOPHIL [2]: 0%
- EOSINOPHIL [2]: 0.33%
- ERYTHROCYTE COUNT [2]: 5.52 x10E6/uL
- HEMATOCRIT [2]: 33.98%
- HEMOGLOBIN [2]: 13.22 G/DL
- LEUKOCYTE COUNT [2]: 15.07 x10E3/uL
- LYMPHOCYTE [2]: 90.83%
- MEAN CORPUSCULAR HEMOGLOBIN [2]: 23.95 pg
- MEAN CORPUSCULAR HEMOGLOBIN CONCENTRATION [2]: 38.9 G/DL
- MEAN CORPUSCULAR VOLUME [2]: 61.53 fL
- MONOCYTE [2]: 0.83%
- NEUTROPHIL [2]: 8%
- NUCLEATED RED BLOOD CELLS [2]: 0 /100WBC
- PLATELET COUNT [2]: 1196 x10E3/uL
- ALANINE AMINOTRANSFERASE [2]: 49.17 u/L
- ALBUMIN [2]: 4.2 G/DL
- ALKALINE PHOSPHATASE [2]: 352.33 u/L
- ASPARTATE AMINOTRANSFERASE [2]: 89.67 u/L
- BLOOD UREA NITROGEN [2]: 18 mg/dL
- CARBON DIOXIDE [2]: 27.67 mmol/L
- CHLORIDE [2]: 101 MEQ/L
- CHOLESTEROL [2]: 72.83 mg/dL
- CREATINE PHOSPHOKINASE [2]: 417.5 u/L
- CREATININE [2]: 0.18 mg/dL
- GLUCOSE [2]: 150.5 mg/dL
- LACTATE DEHYDROGENASE [2]: 517.33 u/L
- LIPASE [2]: 9 u/L
- PHOSPHORUS [2]: 11.87 mg/dL
- POTASSIUM [2]: 6.57 MEQ/L
- SODIUM [2]: 143.62 MEQ/L
- TOTAL BILIRUBIN [2]: 0.2 mg/dL
- TOTAL PROTEIN [2]: 6.08 G/DL
- URIC ACID [2]: 1.45 mg/dL
- ABSOLUTE BASOPHIL [3]: 0 CELLS/uL
- ABSOLUTE EOSINOPHIL [3]: 0 CELLS/uL
- ABSOLUTE LYMPHOCYTE [3]: 12161.33 CELLS/uL
- ABSOLUTE MONOCYTE [3]: 182.33 CELLS/uL
- ABSOLUTE SEGMENTED NEUTROPHIL [3]: 1123 CELLS/uL
- BASOPHIL [3]: 0%
- EOSINOPHIL [3]: 0%
- ERYTHROCYTE COUNT [3]: 5.27 x10E6/uL
- HEMATOCRIT [3]: 34.17%
- HEMOGLOBIN [3]: 13.33 G/DL
- LEUKOCYTE COUNT [3]: 13.47 x10E3/uL
- LYMPHOCYTE [3]: 90.33%
- MEAN CORPUSCULAR HEMOGLOBIN [3]: 25.37 pg
- MEAN CORPUSCULAR HEMOGLOBIN CONCENTRATION [3]: 39.03 G/DL
- MEAN CORPUSCULAR VOLUME [3]: 64.97 fL
- MONOCYTE [3]: 1.33%
- NEUTROPHIL [3]: 8.33%
- NUCLEATED RED BLOOD CELLS [3]: 0 /100WBC
- PLATELET COUNT [3]: 1177 x10E3/uL
- ALANINE AMINOTRANSFERASE [3]: 54.33 u/L
- ALBUMIN [3]: 4.03 G/DL
- ALKALINE PHOSPHATASE [3]: 373.67 u/L
- ASPARTATE AMINOTRANSFERASE [3]: 85.33 u/L
- BLOOD UREA NITROGEN [3]: 15.33 mg/dL
- CARBON DIOXIDE [3]: 26.33 mmol/L
- CHLORIDE [3]: 101.67 MEQ/L
- CHOLESTEROL [3]: 64 mg/dL
- CREATINE PHOSPHOKINASE [3]: 394.67 u/L
- CREATININE [3]: 0.16 mg/dL
- GLUCOSE [3]: 125 mg/dL
- LACTATE DEHYDROGENASE [3]: 438.33 u/L
- LIPASE [3]: 10 u/L
- PHOSPHORUS [3]: 11.93 mg/dL
- POTASSIUM [3]: 7.01 MEQ/L
- SODIUM [3]: 142.53 MEQ/L
- TOTAL BILIRUBIN [3]: 0.2 mg/dL
- TOTAL PROTEIN [3]: 5.53 G/DL
- URIC ACID [3]: 1.57 mg/dL
